US20030100595A1, “Oral dosage form of a sulfonamide prodrug” (priority 2001, published 2003)

Tests used:
COX-1 = COX-1 (Homo sapiens, UniProt P23219); settings: background statement, in words; cited from earlier work
[1] = Human pharmacokinetic study: valdecoxib blood plasma concentration by HPLC; type: in vivo
Procedure: Subjects drank 180 ml water one, two and three hours postdose. […] Rapid onset is a highly desirable feature of many therapies for COX-2 mediated disorders, particularly those accompanied by acute pain. […] Each subject received each of three treatments, in randomized sequence, treatments being separated by 15 days. […] Following each treatment, subjects drank 180 ml water one, two and three hours after the treatment.

[2] = background statement, in words; cited from earlier work

Chain of COX-1 (P23219 24-599): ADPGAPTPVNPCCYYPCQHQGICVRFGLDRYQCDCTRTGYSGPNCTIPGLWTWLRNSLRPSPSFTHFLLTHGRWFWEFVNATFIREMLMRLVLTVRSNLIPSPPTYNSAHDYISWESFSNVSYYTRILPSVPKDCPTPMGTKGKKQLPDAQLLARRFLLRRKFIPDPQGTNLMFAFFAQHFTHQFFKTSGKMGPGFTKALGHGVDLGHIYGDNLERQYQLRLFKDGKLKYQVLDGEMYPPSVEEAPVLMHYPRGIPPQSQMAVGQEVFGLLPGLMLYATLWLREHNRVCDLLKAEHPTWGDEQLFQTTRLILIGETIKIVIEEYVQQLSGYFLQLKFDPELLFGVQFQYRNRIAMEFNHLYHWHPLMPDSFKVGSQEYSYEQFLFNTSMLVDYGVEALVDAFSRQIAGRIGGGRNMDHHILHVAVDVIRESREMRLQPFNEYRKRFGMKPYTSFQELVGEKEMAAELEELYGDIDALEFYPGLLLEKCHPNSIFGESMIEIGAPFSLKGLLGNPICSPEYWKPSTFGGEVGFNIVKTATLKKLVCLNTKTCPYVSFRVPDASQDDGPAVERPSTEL

**Q.** For CCC(=O)NS(=O)(=O)c1ccc(-c2c(-c3ccccc3)noc2C)cc1 [parecoxib], which “in vitro inhibitory activity against COX-1” value (COX-1) is on record?
**A.** weak

**Q.** And the “conversion of parecoxib to valdecoxib” value ([1]; administered orally to a human subject)?
**A.** rapidly and completely converted to valdecoxib

**Q.** What about the water solubility [2] of the same compound?
**A.** high

**Q.** With Cc1onc(-c2ccccc2)c1-c1ccc(S(N)(=O)=O)cc1 [valdecoxib] as the compound, how does the “in vitro inhibitory activity against COX-1” value (COX-1) read?
**A.** weak

**Q.** What about the Tmax ([1]; male, human, plasma, po, 20 mg) of the same compound?
**A.** 3.11 h

**Q.** What about the half-life ([1]; male, human, plasma, po, 20 mg) of the same compound?
**A.** 7.69 ± 2.45 h

**Q.** What about the water solubility [2] of the same compound?
**A.** substantially water-insoluble
